Measured values published in ChEMBL document CHEMBL4196225, “Precedence and Promise of Covalent Inhibitors of EGFR and KRAS for Patients with Non-Small-Cell Lung Cancer” (ACS Med Chem Lett, 2018).
pKi: −log10 of the molar value.

Tests used:
GTPase KRas = GTPase KRas (Homo sapiens, UniProt P01116, G12C); test: Binding affinity to hexahistidine-tagged recombinant human KRas G12C mutant expressed in Escherichia coli BL21 (DE3) in presence of GDP
[1] = tested on: GTPase KRas (Homo sapiens), P01116 [G12C]; test: Ratio of Kinact to Ki for hexahistidine-tagged recombinant human KRas G12C mutant expressed in Escherichia coli BL21 (DE3)
[2] = tested on: GTPase KRas (Homo sapiens), P01116 [G12C]; test: Binding affinity to hexahistidine-tagged recombinant human KRas G12C mutant expressed in Escherichia coli BL21 (DE3) assessed as first-order rate constant in presence of GDP

Sequence of GTPase KRas (Homo sapiens), P01116 [G12C] (P01116 whole entry G12C): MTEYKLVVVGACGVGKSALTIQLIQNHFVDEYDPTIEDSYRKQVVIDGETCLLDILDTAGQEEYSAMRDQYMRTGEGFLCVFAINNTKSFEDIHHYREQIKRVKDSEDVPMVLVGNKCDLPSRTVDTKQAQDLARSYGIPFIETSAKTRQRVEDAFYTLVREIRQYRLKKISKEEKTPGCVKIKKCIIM
Sequence of GTPase KRas (P01116 whole entry G12C): as above

C=CC(=O)N1CCN(c2ncnc3c(F)c(-c4c(O)cccc4F)c(Cl)cc23)CC1 (atropisomer S)
pKi (GTPase KRas): < 4.19
Ratio [1]: 1100 M⁻¹ s⁻¹
Kinact [2]: > 0.066 s⁻¹
